For 23 compounds, IC50 results are on record in patent US20260131007A1, “Mannose 6-Phosphate Receptor Binding Compounds for the Degradation of Extracellular Proteins” (Avilar Therapeutics, Inc., priority 2023, published 2026).

The target in this test is T1, Insulin-like growth factor 2 receptor (IGF-1IR, cation-independent mannose-6-phosphate receptor, CI-MPR; hIGF-IIR) (Homo sapiens, UniProt P11717).
T1 construct: purchased R&D Systems 6418-GR
Nature of the test: HTRF-based ternary complex inhibition assay for relative affinity of IGF-IIR ligands. The conditions noted are these: competition with MTAC probe for His-tagged hIGF-IIR; biotinylated IgG1; apparent binding affinity; read-out: TCF INH (HTRF) IC50. As for the experimental part: The apparent binding affinity of Insulin-like growth factor 2 receptor (IGF-1IR, also called the cation- independent mannose-6-phosphate receptor (CI-MPR)) ligands was determined indirectly by competing with a probe molecule for binding to IGF-1IR. The probe is a Mannose 6-Phosphate Ligand (“Ligand”) and binds to hIGF-IIR and IgG1 to form a hIGF-IIR: Ligand: IgG1 ternary complex. The ternary complex was detected by an HTRF readout. The ternary complex is disrupted in the presence of IGF-1IR ligand, resulting in decreased HTRF signal. IGF-1IR ligands of 3-fold dilution series were prepared from 10 mM DMSO stock on a 384-well LDV microplate using Echo Acoustic Liquid Handler (Beckman Coulter Life Sciences) followed by transfer of 600 nL of the solutions to an OptiPlate 384-well microplate (PerkinElmer, 6007290). Manose-6-phosphate (M6P; J&K, 530168) and glucose-6-phosphate (G6P; Sigma, V900924) were prepared from 100 mM stock in the same manner and were used as positive and negative controls, respectively. The wells used as 0% and 100% inhibition controls were prepared by adding 600 nL DMSO. 20 nL of 50 μM MTAC probe was transferred to all wells except the wells used as 100% Inhibition control. 9.4 μL working solution containing 65.1 nM of Biotinylated-IgG1 (Viva 20211108) and 65.1 nM of His-tagged hIGF-IIR (R&D Systems, 6418-GR) in assay buffer 50 mM Tris, pH 7.5, 150 mM NaCl, 50 mM CaCl2, 0.01% Tween-20 was transferred to all wells. The plate was incubated at room temperature for 60 min with gentle shaking to allow molecular interaction to reach equilibration. Following this, 10 μL of HTRF detection solution containing 15 nM Streptavidin-d2 (PerkinElmer, 610SADLA) and 0.7 nM MAb Anti 6HIS—Tb cryptate (PerkinElmer, 61HISTLA) in PPI Terbium detection buffer (PerkinElmer, 61DB10RDF) was added. The assay plate was incubated at room temperature with gentle shaking for 60 min to allow HTRF signal to develop. The plate was gently spun on a centrifuge then placed on a EnVision plate reader (Perkin Elmer, EnVision 2104) to read fluorescence ratio of 665 nm/615 nm. Percent inhibitions were calculated with this equation: % I=100* [1−(X−100% I/(0% I−100% I)] where X is the […] in the presence of IGF-1IR ligand. The apparent binding affinity (presented as IC50) was calculated by fitting the % inhibition data with a non-linear 4-parameter inhibition equation using GraphPad Prism (GraphPad Software, LLC; version 9.4.1).
(TR-FRET usually uses a lanthanide donor and a delayed reading to cut background.)
For orientation: IC50 means the concentration that gives 50% inhibition. With `COc1ccc(OC2O[C@H](CCP(=O)(O)CC#N)[C@@H](O)[C@H](O)[C@@H]2O)cc1` (stereo partly drawn) [Compound A48, (cyanomethyl) (2-((2R,3S,4S,5S)-3,4,5-trihydroxy-6-(4-methoxyphenoxy)tetrahydro-2H-pyran-2-yl)ethyl)phosphinic acid], the IC50 lay within 10 to 100 µM. As to `COc1ccc(OC2O[C@H](CCP(=O)(O)Cc3ccccc3C#N)[C@@H](O)[C@H](O)[C@@H]2O)cc1` (stereo partly drawn) [Compound A49, (2-cyanophenyl)methyl-[2-[(2R,3S,4S,5S)-3,4,5-trihydroxy-6-(4-methoxyphenoxy)tetrahydropyran-2-yl]ethyl]phosphinic acid], the IC50 is below 10 µM.

For `COc1ccc(OC2O[C@H](CCP(=O)(O)Cc3ccccn3)[C@@H](O)[C@H](O)[C@@H]2O)cc1` (stereo partly drawn) [Compound A50, (pyridin-2-ylmethyl) (2-((2R,3S,4S,5S)-3,4,5-trihydroxy-6-(4-methoxyphenoxy)tetrahydro-2H-pyran-2-yl)ethyl)phosphinic acid], the IC50 is below 10 µM. In the case of `COc1ccc(O[C@H]2O[C@H](CCP(=O)(O)Cc3c(F)cccc3Cl)[C@@H](O)[C@H](O)[C@@H]2O)cc1` [Compound A51, (2-chloro-6-fluorobenzyl) (2-((2R,3S,4S,5S,6R)-3,4,5-trihydroxy-6-(4-methoxyphenoxy)tetrahydro-2H-pyran-2-yl)ethyl)phosphinic acid] it was below 10 µM. For `C=CCP(=O)(O)CC[C@H]1OC(Oc2ccc(OC)cc2)[C@@H](O)[C@@H](O)[C@@H]1O` (stereo partly drawn) [Compound A52, allyl(2-((2R,3S,4S,5S)-3,4,5-trihydroxy-6-(4-methoxyphenoxy)tetrahydro-2H-pyran-2-yl)ethyl)phosphinic acid] the value was 10 to 100 µM.

Consider `CC#CCP(=O)(O)CC[C@H]1OC(Oc2ccc(OC)cc2)[C@@H](O)[C@@H](O)[C@@H]1O` (stereo partly drawn) [Compound A53, but-2-yn-1-yl(2-((2R,3S,4S,5S)-3,4,5-trihydroxy-6-(4-methoxyphenoxy)tetrahydro-2H-pyran-2-yl)ethyl)phosphinic acid], for which the IC50 was 10 to 100 µM. For `COc1ccc(O[C@H]2O[C@H](CCP(=O)(O)Cc3c(F)ccc(F)c3F)[C@@H](O)[C@H](O)[C@@H]2O)cc1` [Compound A54, (2,3,6-trifluorobenzyl) (2-((2R,3S,4S,5S)-3,4,5-trihydroxy-6-(4-methoxyphenoxy)tetrahydro-2H-pyran-2-yl)ethyl)phosphinic acid], the IC50 was below 10 µM. In the case of `COc1ccc(O[C@H]2O[C@H](CCP(=O)(O)Cc3c(F)cc(F)cc3F)[C@@H](O)[C@H](O)[C@@H]2O)cc1` [Compound A55, (2,4,6-trifluorobenzyl) (2-((2R,3S,4S,5S)-3,4,5-trihydroxy-6-(4-methoxyphenoxy)tetrahydro-2H-pyran-2-yl)ethyl)phosphinic acid] it was 10 to 100 µM; in that of `COc1ccc(OC2O[C@H](CCP(=O)(O)CC3CC3)[C@@H](O)[C@H](O)[C@@H]2O)cc1` (stereo partly drawn) [Compound A56, (cyclopropylmethyl) (2-((2R,3S,4S,5S)-3,4,5-trihydroxy-6-(4-methoxyphenoxy)tetrahydro-2H-pyran-2-yl)ethyl)phosphinic acid], below 10 µM. For the compound `CCCP(=O)(O)CC[C@H]1OC(Oc2ccc(OC)cc2)[C@@H](O)[C@@H](O)[C@@H]1O` (stereo partly drawn) [Compound A57, propyl(2-((2R,3S,4S,5S)-3,4,5-trihydroxy-6-(4-methoxyphenoxy)tetrahydro-2H-pyran-2-yl)ethyl)phosphinic acid], the 50% inhibitory concentration (IC50) is below 10 µM. As for `COc1ccc(OC2O[C@H](CCP(=O)(O)CC3CC3(F)F)[C@@H](O)[C@H](O)[C@@H]2O)cc1` (stereo partly drawn) [Compound A58, ((2,2-difluorocyclopropyl)methyl) (2-((2R,3S,4S,5S)-3,4,5-trihydroxy-6-(4-methoxyphenoxy)tetrahydro-2H-pyran-2-yl)ethyl)phosphinic acid], the 50% inhibitory concentration (IC50) was below 10 µM. As for `C#CCOc1cccc(CP(=O)(O)CC[C@H]2OC(Oc3ccc(OC)cc3)[C@@H](O)[C@@H](O)[C@@H]2O)c1` (stereo partly drawn) [Compound A59, (3-prop-2-ynoxyphenyl)methyl-[2-[(2R,3S,4S,5S)-3,4,5-trihydroxy-6-(4-methoxyphenoxy)tetrahydropyran-2-yl]ethyl]phosphinic acid], the IC50 is below 10 µM.

With `O=P(O)(CC[C@H]1OC(O)[C@@H](O)[C@@H](O)[C@@H]1O)Cc1c(F)cccc1F` (stereo partly drawn) [Compound A60, (2,6-difluorobenzyl) (2-((2R,3S,4S,5S)-3,4,5,6-tetrahydroxytetrahydro-2H-pyran-2-yl)ethyl)phosphinic acid], the half-maximal inhibitory concentration (IC50) fell in the range of 10 to 100 µM. For the compound `CC(=O)N1C[C@@H](O)[C@@H](O)[C@H](O)[C@H]1CCP(=O)(O)O` [Compound A61, (2-((2R,3R,4R,5R)-1-acetyl-3,4,5-trihydroxypiperidin-2-yl)ethyl)phosphonic acid], the IC50 lay in the range of 10 to 100 µM. As for `COc1ccc(OC2O[C@H](CCP(=O)(O)C(O)c3ccccc3)[C@@H](O)[C@H](O)[C@@H]2O)cc1` (stereo partly drawn) [Compound A74, (hydroxy (phenyl)methyl) (2-((2R,3S,4S,5S)-3,4,5-trihydroxy-6-(4-methoxyphenoxy)tetrahydro-2H-pyran-2-yl)ethyl)phosphinic acid], the 50% inhibitory concentration (IC50) was below 10 µM. For `COc1ccc(OC2O[C@H](CCP(=O)(O)CC#C[Si](C)(C)C)[C@@H](O)[C@H](O)[C@@H]2O)cc1` (stereo partly drawn) [Compound A75, 2-[(2R,3S,4S,5S)-3,4,5-trihydroxy-6-(4-methoxyphenoxy)tetrahydropyran-2-yl]ethyl-(3-trimethylsilylprop-2-ynyl)phosphinic acid], the IC50 was in the range of 10 to 100 µM. For `Nc1ccc2c(c1)Cc1cc(O[C@H]3O[C@H](CCP(=O)(O)O)[C@@H](O)[C@H](O)[C@@H]3O)ccc1-2` [Compound A76, (2-((2R,3S,4S,5S,6R)-6-((7-amino-9H-fluoren-2-yl)oxy)-3,4,5-trihydroxytetrahydro-2H-pyran-2-yl)ethyl)phosphonic acid] the value was below 10 µM; for `C#CCP(=O)(O)CC[C@H]1OC(Oc2ccc(OC)cc2)[C@@H](O)[C@@H](O)[C@@H]1O` (stereo partly drawn) [Compound A77, prop-2-yn-1-yl(2-((2R,3S,4S,5S)-3,4,5-trihydroxy-6-(4-methoxyphenoxy)tetrahydro-2H-pyran-2-yl)ethyl)phosphinic acid], 10 to 100 µM. On to `COc1ccc(OC2O[C@H](CCP(=O)(O)CC3=CCCC3)[C@@H](O)[C@H](O)[C@@H]2O)cc1` (stereo partly drawn) [Compound A78, (cyclopent-1-en-1-ylmethyl) (2-((2R,3S,4S,5S)-3,4,5-trihydroxy-6-(4-methoxyphenoxy)tetrahydro-2H-pyran-2-yl)ethyl)phosphinic acid], for which the IC50 is below 10 µM. For the compound `O=P(O)(CC[C@H]1O[C@H](Oc2ccc3c(c2)Cc2ccccc2-3)[C@@H](O)[C@@H](O)[C@@H]1O)Cc1c(F)cccc1F` [Compound A79, (2-((2R,3S,4S,5S,6R)-6-((9H-fluoren-2-yl)oxy)-3,4,5-trihydroxytetrahydro-2H-pyran-2-yl)ethyl) (2,6-difluorobenzyl)phosphinic acid], the IC50 is below 10 µM. For the compound `COc1ccc(OC2O[C@H](CCP(=O)(O)CC(F)(F)F)[C@@H](O)[C@H](O)[C@@H]2O)cc1` (stereo partly drawn) [Compound A80, (2,2,2-trifluoroethyl) (2-((2R,3S,4S,5S)-3,4,5-trihydroxy-6-(4-methoxyphenoxy)tetrahydro-2H-pyran-2-yl)ethyl)phosphinic acid], the IC50 lay within 10 to 100 µM. With `COc1ccc(OC2O[C@H](CCP(=O)(O)Cc3ccccc3)[C@@H](O)[C@H](O)[C@@H]2O)cc1` (stereo partly drawn) [Compound A81, benzyl(2-((2R,3S,4S,5S)-3,4,5-trihydroxy-6-(4-methoxyphenoxy)tetrahydro-2H-pyran-2-yl)ethyl)phosphinic acid], the half-inhibitory concentration (IC50) was below 10 µM. Turning to `COc1ccc(OC2O[C@H](CCP(=O)(O)CC3CCCC3)[C@@H](O)[C@H](O)[C@@H]2O)cc1` (stereo partly drawn) [Compound A82, (cyclopentylmethyl) (2-((2R,3S,4S,5S)-3,4,5-trihydroxy-6-(4-methoxyphenoxy)tetrahydro-2H-pyran-2-yl)ethyl)phosphinic acid], the 50% inhibitory concentration (IC50) was below 10 µM.
